# Data as given in paper PMC5218480 (PLoS ONE, 2017).
# System: MV-4-11 cells
# Assay: Gene expression microarray analysis (Affymetrix PrimeView) and GSEA
# Assay type: cell-based, human
# Design: RFU PODN (11730768_x_at) / Fold change /veh PODN (11730768_x_at) / RFU LINC00158 (11744669_a_at) / Fold change /veh LINC00158 (11744669_a_at) / RFU DUSP10 (11751237_a_at) / Fold change /veh DUSP10 (11751237_a_at) / RFU ID3 (11757404_x_at) / Fold change /veh ID3 (11757404_x_at) / RFU PLEKHG5 (11737974_s_at) / Fold change /veh PLEKHG5 (11737974_s_at) / RFU LRRC4B (11730491_at) / Fold change /veh LRRC4B (11730491_at) / RFU GIMAP4 (11747438_a_at) / Fold change /veh GIMAP4 (11747438_a_at) / RFU KRT8 (11758183_x_at) / Fold change /veh KRT8 (11758183_x_at) / RFU CNN1 (11734310_a_at) / Fold change /veh CNN1 (11734310_a_at) / RFU VPS37D (11726825_at) / Fold change /veh VPS37D (11726825_at) / RFU C10orf10 (11716522_x_at) / Fold change /veh C10orf10 (11716522_x_at) / RFU KIR2DL2 /// KIR2DL4 /// KIR2DL5A /// KIR2DL5B /// KIR2DS1 /// KIR2DS2 /// KIR2DS3 /// KIR2DS4 /// KIR3DL3 /// KIR3DL3 /// KIR3DS1 (11738374_at) / Fold change /veh KIR2DL2 /// KIR2DL4 /// KIR2DL5A /// KIR2DL5B /// KIR2DS1 /// KIR2DS2 /// KIR2DS3 /// KIR2DS4 /// KIR3DL3 /// KIR3DL3 /// KIR3DS1 (11738374_at) / RFU C1QL1 (11718748_at) / Fold change /veh C1QL1 (11718748_at) / RFU TMPRSS4 (11747572_a_at) / Fold change /veh TMPRSS4 (11747572_a_at) / RFU HAMP (11756126_x_at) / Fold change /veh HAMP (11756126_x_at) / RFU RNFT2 (11725882_a_at) / Fold change /veh RNFT2 (11725882_a_at) / RFU NR4A2 (11747474_a_at) / Fold change /veh NR4A2 (11747474_a_at) / RFU ABCC12 (11746883_a_at) / Fold change /veh ABCC12 (11746883_a_at) / RFU TMEM136 (11760407_x_at) / Fold change /veh TMEM136 (11760407_x_at) / RFU CLDN22 /// WWC2 (11732394_at) / Fold change /veh CLDN22 /// WWC2 (11732394_at) / RFU HLA-DPB1 (11760878_x_at) / Fold change /veh HLA-DPB1 (11760878_x_at) / RFU SPINT1 (11716480_a_at) / Fold change /veh SPINT1 (11716480_a_at) / RFU GAP43 (11754022_s_at) / Fold change /veh GAP43 (11754022_s_at) / RFU A4GNT (11735810_at) / Fold change /veh A4GNT (11735810_at) / RFU PRB3 (11715151_x_at) / Fold change /veh PRB3 (11715151_x_at) / RFU TUBB4B (11761932_at) / Fold change /veh TUBB4B (11761932_at) / RFU CAPN14 (11732068_a_at) / Fold change /veh CAPN14 (11732068_a_at) / RFU TMCC2 (11721928_a_at) / Fold change /veh TMCC2 (11721928_a_at) / RFU IRGQ (11745062_a_at) / Fold change /veh IRGQ (11745062_a_at) / RFU FAM174B (11720279_a_at) / Fold change /veh FAM174B (11720279_a_at) / RFU TMPRSS4 (11748680_a_at) / Fold change /veh TMPRSS4 (11748680_a_at) / RFU FAM212B (11763350_a_at) / Fold change /veh FAM212B (11763350_a_at) / RFU PLEKHG5 (11743358_a_at) / Fold change /veh PLEKHG5 (11743358_a_at) / RFU ZSCAN30 (11745921_a_at) / Fold change /veh ZSCAN30 (11745921_a_at) / RFU CMKLR1 (11741424_a_at) / Fold change /veh CMKLR1 (11741424_a_at) / RFU LOC101060620 /// MAPK8IP1 (11723275_at) / Fold change /veh LOC101060620 /// MAPK8IP1 (11723275_at) / RFU SPTSSB (11747773_x_at) / Fold change /veh SPTSSB (11747773_x_at) / RFU PRSS12 (11739890_at) / Fold change /veh PRSS12 (11739890_at) / RFU BIN1 (11741810_x_at) / Fold change /veh BIN1 (11741810_x_at) / RFU WNT11 (11732464_a_at) / Fold change /veh WNT11 (11732464_a_at) / RFU C10orf10 (11716521_a_at) / Fold change /veh C10orf10 (11716521_a_at) / RFU C5orf56 (11738089_at) / Fold change /veh C5orf56 (11738089_at) / RFU CYB561 (11721691_x_at) / Fold change /veh CYB561 (11721691_x_at) / RFU ANKRD19P (11752326_a_at) / Fold change /veh ANKRD19P (11752326_a_at) / RFU OR2T12 /// OR2T33 /// OR2T8 (11738714_s_at) / Fold change /veh OR2T12 /// OR2T33 /// OR2T8 (11738714_s_at) / RFU VCAN (11748164_a_at) / Fold change /veh VCAN (11748164_a_at) / RFU JSRP1 (11732532_at) / Fold change /veh JSRP1 (11732532_at) / RFU KRTAP10-11 (11738290_x_at) / Fold change /veh KRTAP10-11 (11738290_x_at) / RFU MYO3A (11730013_a_at) / Fold change /veh MYO3A (11730013_a_at) / RFU EBF3 (11725865_a_at) / Fold change /veh EBF3 (11725865_a_at) / RFU CAMK2N1 (11719241_x_at) / Fold change /veh CAMK2N1 (11719241_x_at) / RFU C5orf56 (11738088_a_at) / Fold change /veh C5orf56 (11738088_a_at) / RFU OLFML3 (11715873_a_at) / Fold change /veh OLFML3 (11715873_a_at) / RFU LOC100653217 /// NTM (11731650_a_at) / Fold change /veh LOC100653217 /// NTM (11731650_a_at) / RFU MAPK11 (11762145_a_at) / Fold change /veh MAPK11 (11762145_a_at) / RFU FIZ1 (11724087_x_at) / Fold change /veh FIZ1 (11724087_x_at) / RFU OASL (11726364_x_at) / Fold change /veh OASL (11726364_x_at) / RFU SOX15 (11748057_x_at) / Fold change /veh SOX15 (11748057_x_at) / RFU CD79A (11719716_a_at) / Fold change /veh CD79A (11719716_a_at) / RFU HIST1H1D (11736915_at) / Fold change /veh HIST1H1D (11736915_at) / RFU CASKIN2 (11723855_a_at) / Fold change /veh CASKIN2 (11723855_a_at) / RFU LOC730098 (11760151_x_at) / Fold change /veh LOC730098 (11760151_x_at) / RFU OR4N2 (11742367_at) / Fold change /veh OR4N2 (11742367_at) / RFU PRRT2 (11749266_a_at) / Fold change /veh PRRT2 (11749266_a_at) / RFU SNX32 (11753110_a_at) / Fold change /veh SNX32 (11753110_a_at) / RFU CDHR5 (11726645_a_at) / Fold change /veh CDHR5 (11726645_a_at) / RFU RCAN1 (11760418_a_at) / Fold change /veh RCAN1 (11760418_a_at) / RFU FAM167A (11723789_a_at) / Fold change /veh FAM167A (11723789_a_at) / RFU FAM26E (11764081_at) / Fold change /veh FAM26E (11764081_at) / RFU ISYNA1 (11749810_s_at) / Fold change /veh ISYNA1 (11749810_s_at) / RFU ACY1 (11761880_at) / Fold change /veh ACY1 (11761880_at) / RFU 11764098_at / Fold change /veh 11764098_at / RFU SAMD14 (11745864_x_at) / Fold change /veh SAMD14 (11745864_x_at) / RFU NPB (11741838_a_at) / Fold change /veh NPB (11741838_a_at) / RFU TMPRSS6 (11731388_a_at) / Fold change /veh TMPRSS6 (11731388_a_at) / RFU KRTAP10-2 (11738614_at) / Fold change /veh KRTAP10-2 (11738614_at) / RFU ARHGAP8 /// PRR5-ARHGAP8 (11727945_x_at) / Fold change /veh ARHGAP8 /// PRR5-ARHGAP8 (11727945_x_at) / RFU KRTAP5-7 /// NADSYN1 (11734609_at) / Fold change /veh KRTAP5-7 /// NADSYN1 (11734609_at) / RFU RASL12 (11751679_a_at) / Fold change /veh RASL12 (11751679_a_at) / RFU CDKN2B (11736163_a_at) / Fold change /veh CDKN2B (11736163_a_at) / RFU PRF1 (11729649_at) / Fold change /veh PRF1 (11729649_at) / RFU, ZNF638 /// ZNF638-IT1 / Fold change vs veh, ZNF638 /// ZNF638-IT1 / RFU, PANK3 / Fold change vs veh, PANK3 / RFU, SH3YL1 / Fold change vs veh, SH3YL1 / RFU, ZEB2 / Fold change vs veh, ZEB2 / RFU, NRIP1 / Fold change vs veh, NRIP1 / RFU, PTTG1IP / Fold change vs veh, PTTG1IP / RFU, CAPN2 / Fold change vs veh, CAPN2 / RFU, MED14 / Fold change vs veh, MED14 / RFU, SNORA58 / Fold change vs veh, SNORA58 / RFU, C1orf63 / Fold change vs veh, C1orf63 / RFU, LRRFIP1 / Fold change vs veh, LRRFIP1 / RFU, NDUFAF7 / Fold change vs veh, NDUFAF7 / RFU, SLC12A2 / Fold change vs veh, SLC12A2 / RFU, IBTK / Fold change vs veh, IBTK / RFU, ESF1 / Fold change vs veh, ESF1 / Fold change vs veh, TMEM50B / RFU, TAOK1 / Fold change vs veh, TAOK1 / RFU, ACBD3 / Fold change vs veh, ACBD3 / RFU, TMA16 / Fold change vs veh, TMA16 / RFU, RWDD3 / Fold change vs veh, RWDD3 / RFU, BCAT1 / Fold change vs veh, BCAT1 / RFU, EDEM3 / Fold change vs veh, EDEM3 / RFU, TMEM33 / Fold change vs veh, TMEM33 / RFU, WDR75 / Fold change vs veh, WDR75 / RFU, AHCTF1 / Fold change vs veh, AHCTF1 / RFU, TFRC / Fold change vs veh, TFRC / RFU, ZDHHC17 / Fold change vs veh, ZDHHC17 / RFU, NOM1 / Fold change vs veh, NOM1 / RFU, ARL8B / Fold change vs veh, ARL8B / RFU, ZBTB11 / Fold change vs veh, ZBTB11 / RFU, TAMM41 / Fold change vs veh, TAMM41 / RFU, KIAA1704 /// LOC100996395 / Fold change vs veh, KIAA1704 /// LOC100996395 / RFU, ING1 / Fold change vs veh, ING1 / RFU, TRMT61B / Fold change vs veh, TRMT61B / RFU, FUBP3 / Fold change vs veh, FUBP3 / RFU, TP53 / Fold change vs veh, TP53 / RFU, TNKS2 / Fold change vs veh, TNKS2 / RFU, ZFP14 / Fold change vs veh, ZFP14 / RFU, ACTR2 / Fold change vs veh, ACTR2 / RFU, PPP3R1 / Fold change vs veh, PPP3R1 / RFU, PIK3R1 / Fold change vs veh, PIK3R1 / RFU, HNRNPA1 / Fold change vs veh, HNRNPA1 / RFU, RNF170 / Fold change vs veh, RNF170 / RFU, ZNF28 / Fold change vs veh, ZNF28 / RFU, RNGTT / Fold change vs veh, RNGTT / RFU, OGT / Fold change vs veh, OGT / RFU, BRD1 / Fold change vs veh, BRD1 / RFU, MARS / Fold change vs veh, MARS / RFU, ZNF655 / Fold change vs veh, ZNF655 / RFU, FAHD1 / Fold change vs veh, FAHD1 / RFU, BDP1 / Fold change vs veh, BDP1 / RFU, LRRCC1 / Fold change vs veh, LRRCC1 / RFU, ARID1A / Fold change vs veh, ARID1A / RFU, ZNF146 / Fold change vs veh, ZNF146 / RFU, ZNF330 / Fold change vs veh, ZNF330 / RFU, GPN3 / Fold change vs veh, GPN3 / RFU, C9orf123 / Fold change vs veh, C9orf123 / RFU, N4BP2L2 / Fold change vs veh, N4BP2L2 / RFU, ARFIP1 / Fold change vs veh, ARFIP1 / RFU, FAM179B / Fold change vs veh, FAM179B / RFU, BCL10 / Fold change vs veh, BCL10 / RFU, UHRF1BP1L / Fold change vs veh, UHRF1BP1L / RFU, BET1 / Fold change vs veh, BET1 / RFU, CNOT2 / Fold change vs veh, CNOT2 / RFU, ZNF268 / Fold change vs veh, ZNF268 / Fold change vs veh, ZNF507 / RFU, DGCR2 / Fold change vs veh, DGCR2 / RFU, WDSUB1 / Fold change vs veh, WDSUB1 / Fold change vs veh, HSP90B1 /// MIR3652 / RFU, ADSS / Fold change vs veh, ADSS / RFU, GK / Fold change vs veh, GK / RFU, ZNF148 / Fold change vs veh, ZNF148 / RFU, TAF9 / Fold change vs veh, TAF9 / RFU, SLC1A5 / Fold change vs veh, SLC1A5 / RFU, SLMO2 / Fold change vs veh, SLMO2 / RFU, ABCC4 / Fold change vs veh, ABCC4 / RFU, LOC101060439 /// RAP1B / Fold change vs veh, LOC101060439 /// RAP1B / RFU, RFX7 / Fold change vs veh, RFX7 / RFU, GTPBP10 / Fold change vs veh, GTPBP10 / RFU, CNEP1R1 / Fold change vs veh, CNEP1R1 / RFU, BIVM-ERCC5 /// ERCC5 / Fold change vs veh, BIVM-ERCC5 /// ERCC5 / RFU, ILF3 / Fold change vs veh, ILF3 / RFU 11762660_at / Fold change /veh 11762660_at / RFU VCAN (11757783_s_at) / Fold change /veh VCAN (11757783_s_at) / RFU DDX43 (11728927_at) / Fold change /veh DDX43 (11728927_at) / RFU KRT8 (11758188_x_at) / Fold change /veh KRT8 (11758188_x_at) / RFU NKD1 (11759106_at) / Fold change /veh NKD1 (11759106_at) / RFU SRD5A1 (11742802_a_at) / Fold change /veh SRD5A1 (11742802_a_at) / RFU TPSAB1 /// TPSB2 (11721975_s_at) / Fold change /veh TPSAB1 /// TPSB2 (11721975_s_at) / RFU GSTM3 (11746129_a_at) / Fold change /veh GSTM3 (11746129_a_at) / RFU IL23R (11737362_x_at) / Fold change /veh IL23R (11737362_x_at) / RFU TMEM51 (11727254_a_at) / Fold change /veh TMEM51 (11727254_a_at) / RFU PIWIL2 (11732686_x_at) / Fold change /veh PIWIL2 (11732686_x_at) / RFU ORM1 (11744905_x_at) / Fold change /veh ORM1 (11744905_x_at) / RFU CCDC152 (11743942_at) / Fold change /veh CCDC152 (11743942_at) / RFU ECM1 (11717891_a_at) / Fold change /veh ECM1 (11717891_a_at) / RFU IL23R (11748794_a_at) / Fold change /veh IL23R (11748794_a_at) / RFU TNFAIP8L3 (11732012_x_at) / Fold change /veh TNFAIP8L3 (11732012_x_at) / RFU MBOAT4 (11741988_at) / Fold change /veh MBOAT4 (11741988_at) / RFU 11764193_at / Fold change /veh 11764193_at / RFU TMEM53 (11763286_at) / Fold change /veh TMEM53 (11763286_at) / RFU MAGEB2 (11727129_at) / Fold change /veh MAGEB2 (11727129_at) / RFU TMEM200A (11744735_a_at) / Fold change /veh TMEM200A (11744735_a_at) / RFU CCDC152 (11751479_a_at) / Fold change /veh CCDC152 (11751479_a_at) / RFU FAM211A (11726209_a_at) / Fold change /veh FAM211A (11726209_a_at) / RFU RGS16 (11746705_a_at) / Fold change /veh RGS16 (11746705_a_at) / RFU VCAN (11755009_s_at) / Fold change /veh VCAN (11755009_s_at) / RFU RHOB (11743442_s_at) / Fold change /veh RHOB (11743442_s_at) / RFU RGS16 (11720943_a_at) / Fold change /veh RGS16 (11720943_a_at) / RFU RGS16 (11720944_at) / Fold change /veh RGS16 (11720944_at) / RFU, VPS4B / Fold change vs veh, VPS4B / RFU, CREB1 / Fold change vs veh, CREB1 / RFU, DNAJC13 / Fold change vs veh, DNAJC13 / RFU, GNAQ / Fold change vs veh, GNAQ / RFU, CDK5R1 / Fold change vs veh, CDK5R1 / RFU, ZRANB3 / Fold change vs veh, ZRANB3 / RFU, CUL4A / Fold change vs veh, CUL4A / RFU, CCNY / Fold change vs veh, CCNY / RFU, UFL1 / Fold change vs veh, UFL1 / RFU, COG3 / Fold change vs veh, COG3 / RFU, DIAPH2 / Fold change vs veh, DIAPH2 / RFU, SKA2 / Fold change vs veh, SKA2 / RFU, AFF3 / Fold change vs veh, AFF3 / RFU, LMF1 / Fold change vs veh, LMF1 / RFU, IPO11 / Fold change vs veh, IPO11 / RFU, DFFB / Fold change vs veh, DFFB / RFU, FOXP1 / Fold change vs veh, FOXP1 / RFU, CARD8 / Fold change vs veh, CARD8 / RFU, STRN3 / Fold change vs veh, STRN3 / RFU, ADK / Fold change vs veh, ADK / RFU, RASSF2 / Fold change vs veh, RASSF2 / RFU, WIPF1 / Fold change vs veh, WIPF1 / RFU, LARP1B / Fold change vs veh, LARP1B / RFU, RASA1 / Fold change vs veh, RASA1 / RFU, RB1 / Fold change vs veh, RB1 / RFU, PPFIA1 / Fold change vs veh, PPFIA1 / RFU, MAT2A / Fold change vs veh, MAT2A / RFU, CCT5 / Fold change vs veh, CCT5 / RFU, WDR92 / Fold change vs veh, WDR92 / RFU, CUX1 / Fold change vs veh, CUX1 / RFU, TTC7A / Fold change vs veh, TTC7A / RFU, TMEM135 / Fold change vs veh, TMEM135 / RFU, DEPTOR / Fold change vs veh, DEPTOR / RFU, CPM / Fold change vs veh, CPM / RFU, DNAJB6 / Fold change vs veh, DNAJB6 / RFU, CACNA2D3 / Fold change vs veh, CACNA2D3 / RFU, DTX4 / Fold change vs veh, DTX4 / RFU, TFCP2 / Fold change vs veh, TFCP2 / RFU, GMCL1 /// GMCL1P1 / Fold change vs veh, GMCL1 /// GMCL1P1 / RFU, AEBP2 / Fold change vs veh, AEBP2 / RFU, SNHG1 /// SNORD22 /// SNORD25 /// SNORD26 /// SNORD27 /// SNORD28 /// SNORD29 /// SNORD31 / Fold change vs veh, SNHG1 /// SNORD22 /// SNORD25 /// SNORD26 /// SNORD27 /// SNORD28 /// SNORD29 /// SNORD31 / Fold change (Aza/veh), C12orf56 (ProbeSet 11735607_a_at) / Fold change (ACY-1035/veh), C12orf56 (ProbeSet 11735607_a_at) / Fold change (Aza/veh), FGFR1OP (ProbeSet 11751329_s_at) / Fold change (ACY-1035/veh), FGFR1OP (ProbeSet 11751329_s_at) / Fold change (Aza/veh), VPS36 (ProbeSet 11739960_a_at) / Fold change (ACY-1035/veh), VPS36 (ProbeSet 11739960_a_at) / RFU SYPL1 (11715823_x_at) / Fold change /veh SYPL1 (11715823_x_at) / RFU IGFBP7 (11715501_s_at) / Fold change /veh IGFBP7 (11715501_s_at) / RFU REEP3 (11722064_at) / Fold change /veh REEP3 (11722064_at) / RFU IGLL1 (11728026_x_at) / Fold change /veh IGLL1 (11728026_x_at): dose or concentration left out as unconfirmed
# Details: MV-4-11 cells, 48 hours
compound,measurement,value
Nc1ccc(-c2cccs2)cc1NC(=O)c1ccc2c(c1)cc(C1CC1)n2CCN1CCOCC1 [ACY-1035],Fold change /veh HIST1H1D (11736915_at),0.94
